Experimental data published in PubChem BioAssay (NCI).
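Test compounds were applied to cells in 96-well plates for 48 hours at 5 doses. Here, GI50 denotes the concentration required for 50% inhibition of growth. At the TGI there is no net growth.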

Key:
Experiment in all cases: DTP human tumour cell line panel, 48 h
OVCAR-4 ovarian = test system: OVCAR-4 ovarian
SNB-75 CNS = test system: SNB-75 CNS
HT29 colon = test system: HT29 colon
EKVX NSCLC = test system: EKVX NSCLC
MOLT-4 leukemia = test system: MOLT-4 leukemia
UACC-257 melanoma = test system: UACC-257 melanoma
RXF 393 renal = test system: RXF 393 renal
SF-539 CNS = test system: SF-539 CNS
IGROV1 ovarian = test system: IGROV1 ovarian
SF-295 CNS = test system: SF-295 CNS
HL-60(TB) leukemia = test system: HL-60(TB) leukemia
CCRF-CEM leukemia = test system: CCRF-CEM leukemia
MALME-3M melanoma = test system: MALME-3M melanoma
SK-MEL-2 melanoma = test system: SK-MEL-2 melanoma
NCI-H522 lung = test system: NCI-H522 lung
CAKI-1 renal = test system: CAKI-1 renal
LOX IMVI melanoma = test system: LOX IMVI melanoma
BT-549 breast = test system: BT-549 breast
COLO 205 colon = test system: COLO 205 colon
SN12C renal = test system: SN12C renal
TK-10 renal = test system: TK-10 renal
HS 578T breast = test system: HS 578T breast
MDA-MB-435 = test system: MDA-MB-435
SNB-19 CNS = test system: SNB-19 CNS
SW-620 colon = test system: SW-620 colon
SK-OV-3 ovarian = test system: SK-OV-3 ovarian
ACHN renal = test system: ACHN renal

SMILES: CCN(CC)c1ccc2c(c1)Oc1nc(N)c(C#N)c(N)c1C2Sc1ccc(C)cc1 (stereo not drawn)
- GI50 (OVCAR-4 ovarian): 1750 nM
- TGI (OVCAR-4 ovarian): 3180 nM
- GI50 (SNB-75 CNS): 1340 nM
- TGI (SNB-75 CNS): 2630 nM
- GI50 (HT29 colon): 1840 nM
- TGI (HT29 colon): 3410 nM
- GI50 (EKVX NSCLC): 605 nM
- TGI (EKVX NSCLC): 2050 nM
- GI50 (MOLT-4 leukemia): 824 nM
- TGI (MOLT-4 leukemia): 4300 nM
- GI50 (UACC-257 melanoma): 1850 nM
- TGI (UACC-257 melanoma): 3390 nM
- GI50 (RXF 393 renal): 1770 nM
- TGI (RXF 393 renal): 3220 nM
- GI50 (SF-539 CNS): 1600 nM
- TGI (SF-539 CNS): 2960 nM
- GI50 (IGROV1 ovarian): 1090 nM
- TGI (IGROV1 ovarian): 2360 nM
- GI50 (SF-295 CNS): 1750 nM
- TGI (SF-295 CNS): 3190 nM
- GI50 (HL-60(TB) leukemia): 564 nM
- TGI (HL-60(TB) leukemia): 3140 nM
- GI50 (CCRF-CEM leukemia): 366 nM
- TGI (CCRF-CEM leukemia): 2110 nM
- GI50 (MALME-3M melanoma): 1680 nM
- TGI (MALME-3M melanoma): 3060 nM
- GI50 (SK-MEL-2 melanoma): 1720 nM
- TGI (SK-MEL-2 melanoma): 3120 nM
- GI50 (NCI-H522 lung): 1750 nM
- TGI (NCI-H522 lung): 3170 nM
- GI50 (CAKI-1 renal): 1460 nM
- TGI (CAKI-1 renal): 2780 nM
- GI50 (LOX IMVI melanoma): 320 nM
- TGI (LOX IMVI melanoma): 1060 nM
- GI50 (BT-549 breast): 1160 nM
- TGI (BT-549 breast): 2500 nM
- GI50 (COLO 205 colon): 1810 nM
- TGI (COLO 205 colon): 3490 nM
- GI50 (SN12C renal): 1680 nM
- TGI (SN12C renal): 3150 nM
- GI50 (TK-10 renal): 2960 nM
- TGI (TK-10 renal): 4480 nM
- GI50 (HS 578T breast): 1590 nM
- TGI (HS 578T breast): 4570 nM
- GI50 (MDA-MB-435): 1250 nM
- TGI (MDA-MB-435): 2540 nM
- GI50 (SNB-19 CNS): 1360 nM
- TGI (SNB-19 CNS): 2670 nM
- GI50 (SW-620 colon): 1500 nM
- TGI (SW-620 colon): 3210 nM
- GI50 (SK-OV-3 ovarian): 1940 nM
- TGI (SK-OV-3 ovarian): 3470 nM
- GI50 (ACHN renal): 1580 nM
